Patent US10750743B2, “Pyridazinone herbicides” (E.I. DU PONT DE NEMOURS AND COMPANY, priority 2015, dated 2020)

Experiments:
Type in all cases: in vivo
[1] = system: foxtail, giant (giant foxtail, Setaria faberii); assay: Test A preemergence, directed soil spray, visual injury rating; settings: 0 is no effect, 100 is complete control
How it was run: (§1)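 Seeds sown in a loam soil–sand blend received a directed preemergence soil spray of test chemical in a non-phytotoxic solvent mixture with surfactant. Postemergence plants were sprayed at 2 to 10 cm, one- to two-leaf stage. After approximately 10 d in greenhouse, injury was visually rated 0 (no effect) to 100 (complete control) against untreated controls.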

[2] = system: pigweed (Amaranthus retroflexus); assay: as above; settings: 0 is no effect, 100 is complete control
How it was run: as §1

[3] = system: barnyardgrass (Echinochloa crus-galli); assay: as above; settings: 0 is no effect, 100 is complete control
How it was run: as §1

[4] = system: ryegrass, It. (Italian ryegrass, Lolium multiflorum); assay: as above; settings: 0 is no effect, 100 is complete control
How it was run: as §1

kochia (Kochia scoparia) [5] = assay: as above; settings: 0 is no effect, 100 is complete control
How it was run: as §1

[6] = system: ragweed (common ragweed, Ambrosia elatior); assay: as above; settings: 0 is no effect, 100 is complete control
How it was run: as §1

[7] = system: foxtail, giant (giant foxtail, Setaria faberii); assay: Test A postemergence application, visual injury rating; settings: 0 to 100 scale, 0 no effect, 100 complete control
How it was run: as §1

corn (Zea mays) = assay: as above; settings: 0 to 100 scale, 0 no effect, 100 complete control
How it was run: as §1

[8] = system: wheat (Triticum aestivum); assay: as above; settings: 0 to 100 scale, 0 no effect, 100 complete control
How it was run: as §1

[9] = system: pigweed (Amaranthus retroflexus); assay: as above; settings: 0 to 100 scale, 0 no effect, 100 complete control
How it was run: as §1

[10] = system: galium (catchweed bedstraw, Galium aparine); assay: as above; settings: 0 to 100 scale, 0 no effect, 100 complete control
How it was run: as §1

[11] = system: barnyardgrass (Echinochloa crus-galli); assay: as above; settings: 0 to 100 scale, 0 no effect, 100 complete control
How it was run: as §1

[12] = system: blackgrass (Alopecurus myosuroides); assay: as above; settings: 0 to 100 scale, 0 no effect, 100 complete control
How it was run: as §1

[13] = system: ryegrass, It. (Italian ryegrass, Lolium multiflorum); assay: as above; settings: 0 to 100 scale, 0 no effect, 100 complete control
How it was run: as §1

kochia (Kochia scoparia) [14] = assay: as above; settings: 0 to 100 scale, 0 no effect, 100 complete control
How it was run: as §1

[15] = system: ragweed (common ragweed, Ambrosia elatior); assay: as above; settings: 0 to 100 scale, 0 no effect, 100 complete control
How it was run: as §1

[16] = system: sedge, umbrella (small-flower umbrella sedge, Cyperus difformis); assay: Test B flooded paddy test, visual rating; settings: Flood, 250 g ai/ha, applied to paddy water, rated after 13 to 15 d
How it was run: (§2)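 Plants at the 2-leaf stage were flooded to 3 cm above soil, and test compounds were applied directly into the paddy water, which was held at that depth throughout. After 13 to 15 d in a greenhouse, injury was rated visually against untreated controls on a 0–100 scale (0 no effect, 100 complete control).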

[17] = system: ducksalad (Heteranthera limosa); assay: Test B flooded paddy test, visual rating; settings: Flood, 250 g ai/ha, applied to paddy water, rated after 13 to 15 d
How it was run: as §2

[18] = system: barnyardgrass (Echinochloa crus-galli); assay: Test B flooded paddy test, visual rating; settings: Flood, 250 g ai/ha, applied to paddy water, rated after 13 to 15 d
How it was run: as §2

rice (Oryza sativa) = assay: Test B flooded paddy test, visual rating; settings: Flood, 250 g ai/ha, applied to paddy water, rated after 13 to 15 d
How it was run: as §2

CCC(=O)Oc1c(C)nn(C)c(=O)c1-c1ccc(Cl)c2oc(C)cc12 [Compound 52]
60: Pigweed plant response rating ([9]; 125 g ai/ha) | Pigweed plant response rating ([9]; 500 g ai/ha) | Ryegrass, It. plant response rating ([13]; 500 g ai/ha) | Ragweed plant response rating ([15]; 500 g ai/ha)
20: Kochia plant response rating (kochia (Kochia scoparia) [14]; 500 g ai/ha) | Ragweed plant response rating ([15]; 125 g ai/ha)
100: Plant response rating (0 to 100 scale), Pigweed ([2]; 500 g ai/ha)
50: Plant response rating (0 to 100 scale), Ryegrass, It. ([4]; 125 g ai/ha)
40: Ryegrass, It. plant response rating ([13]; 125 g ai/ha)
10: Barnyardgrass plant response rating ([11]; 500 g ai/ha) | Blackgrass plant response rating ([12]; 500 g ai/ha)
0: Plant response rating (0 to 100 scale), Foxtail, Giant ([1]; 125 g ai/ha) | Plant response rating (0 to 100 scale), Foxtail, Giant ([1]; 500 g ai/ha) | Plant response rating (0 to 100 scale), Barnyardgrass ([3]; 125 g ai/ha) | Plant response rating (0 to 100 scale), Barnyardgrass ([3]; 500 g ai/ha) | Plant response rating (0 to 100 scale), Kochia (kochia (Kochia scoparia) [5]; 125 g ai/ha) | Plant response rating (0 to 100 scale), Kochia (kochia (Kochia scoparia) [5]; 500 g ai/ha) | Plant response rating (0 to 100 scale), Ragweed ([6]; 125 g ai/ha) | Plant response rating (0 to 100 scale), Ragweed ([6]; 500 g ai/ha) | Foxtail, Giant plant response rating ([7]; 125 g ai/ha) | Foxtail, Giant plant response rating ([7]; 500 g ai/ha) | Corn plant response rating (corn (Zea mays); 125 g ai/ha) | Corn plant response rating (corn (Zea mays); 500 g ai/ha) | Wheat plant response rating ([8]; 125 g ai/ha) | Wheat plant response rating ([8]; 500 g ai/ha) | Barnyardgrass plant response rating ([11]; 125 g ai/ha) | Blackgrass plant response rating ([12]; 125 g ai/ha) | Kochia plant response rating (kochia (Kochia scoparia) [14]; 125 g ai/ha) | Sedge, Umbrella plant response rating (0 to 100 scale, 0 is no effect, 100 is complete control) [16] | Ducksalad plant response rating (0 to 100 scale, 0 is no effect, 100 is complete control) [17] | Barnyardgrass plant response rating (0 to 100 scale, 0 is no effect, 100 is complete control) [18] | Rice plant response rating (0 to 100 scale, 0 is no effect, 100 is complete control) (rice (Oryza sativa))
70: Plant response rating (0 to 100 scale), Pigweed ([2]; 125 g ai/ha) | Plant response rating (0 to 100 scale), Ryegrass, It. ([4]; 500 g ai/ha)
90: Galium plant response rating ([10]; 125 g ai/ha) | Galium plant response rating ([10]; 500 g ai/ha)

COC(=O)Oc1c(C)nn(C)c(=O)c1-c1ccc(Cl)c2oc(C)cc12 [Compound 53]
10: Barnyardgrass plant response rating ([11]; 125 g ai/ha) | Ryegrass, It. plant response rating ([13]; 31 g ai/ha)
20: Plant response rating (0 to 100 scale), Ragweed ([6]; 31 g ai/ha)
30: Plant response rating (0 to 100 scale), Barnyardgrass ([3]; 125 g ai/ha) | Pigweed plant response rating ([9]; 31 g ai/ha) | Ryegrass, It. plant response rating ([13]; 125 g ai/ha) | Ragweed plant response rating ([15]; 125 g ai/ha)
0: Plant response rating (0 to 100 scale), Foxtail, Giant ([1]; 31 g ai/ha) | Plant response rating (0 to 100 scale), Foxtail, Giant ([1]; 125 g ai/ha) | Plant response rating (0 to 100 scale), Pigweed ([2]; 31 g ai/ha) | Plant response rating (0 to 100 scale), Barnyardgrass ([3]; 31 g ai/ha) | Plant response rating (0 to 100 scale), Ryegrass, It. ([4]; 31 g ai/ha) | Plant response rating (0 to 100 scale), Kochia (kochia (Kochia scoparia) [5]; 31 g ai/ha) | Plant response rating (0 to 100 scale), Kochia (kochia (Kochia scoparia) [5]; 125 g ai/ha) | Plant response rating (0 to 100 scale), Ragweed ([6]; 125 g ai/ha) | Foxtail, Giant plant response rating ([7]; 31 g ai/ha) | Foxtail, Giant plant response rating ([7]; 125 g ai/ha) | Corn plant response rating (corn (Zea mays); 31 g ai/ha) | Corn plant response rating (corn (Zea mays); 125 g ai/ha) | Wheat plant response rating ([8]; 31 g ai/ha) | Wheat plant response rating ([8]; 125 g ai/ha) | Barnyardgrass plant response rating ([11]; 31 g ai/ha) | Blackgrass plant response rating ([12]; 31 g ai/ha) | Blackgrass plant response rating ([12]; 125 g ai/ha) | Kochia plant response rating (kochia (Kochia scoparia) [14]; 31 g ai/ha) | Kochia plant response rating (kochia (Kochia scoparia) [14]; 125 g ai/ha) | Ragweed plant response rating ([15]; 31 g ai/ha) | Sedge, Umbrella plant response rating (0 to 100 scale, 0 is no effect, 100 is complete control) [16] | Ducksalad plant response rating (0 to 100 scale, 0 is no effect, 100 is complete control) [17] | Barnyardgrass plant response rating (0 to 100 scale, 0 is no effect, 100 is complete control) [18] | Rice plant response rating (0 to 100 scale, 0 is no effect, 100 is complete control) (rice (Oryza sativa))
80: Galium plant response rating ([10]; 125 g ai/ha)
40: Plant response rating (0 to 100 scale), Pigweed ([2]; 125 g ai/ha)
50: Pigweed plant response rating ([9]; 125 g ai/ha)
60: Plant response rating (0 to 100 scale), Ryegrass, It. ([4]; 125 g ai/ha) | Galium plant response rating ([10]; 31 g ai/ha)

CC(=O)Oc1c(C)nn(C)c(=O)c1-c1ccc(Cl)c2oc(C)cc12 [Compound 54]
60: Ryegrass, It. plant response rating ([13]; 125 g ai/ha)
10: Plant response rating (0 to 100 scale), Ragweed ([6]; 125 g ai/ha) | Kochia plant response rating (kochia (Kochia scoparia) [14]; 125 g ai/ha)
50: Plant response rating (0 to 100 scale), Ryegrass, It. ([4]; 125 g ai/ha) | Galium plant response rating ([10]; 31 g ai/ha)
30: Plant response rating (0 to 100 scale), Ryegrass, It. ([4]; 31 g ai/ha) | Pigweed plant response rating ([9]; 31 g ai/ha)
0: Plant response rating (0 to 100 scale), Foxtail, Giant ([1]; 31 g ai/ha) | Plant response rating (0 to 100 scale), Foxtail, Giant ([1]; 125 g ai/ha) | Plant response rating (0 to 100 scale), Pigweed ([2]; 31 g ai/ha) | Plant response rating (0 to 100 scale), Barnyardgrass ([3]; 31 g ai/ha) | Plant response rating (0 to 100 scale), Barnyardgrass ([3]; 125 g ai/ha) | Plant response rating (0 to 100 scale), Kochia (kochia (Kochia scoparia) [5]; 31 g ai/ha) | Plant response rating (0 to 100 scale), Kochia (kochia (Kochia scoparia) [5]; 125 g ai/ha) | Plant response rating (0 to 100 scale), Ragweed ([6]; 31 g ai/ha) | Foxtail, Giant plant response rating ([7]; 31 g ai/ha) | Foxtail, Giant plant response rating ([7]; 125 g ai/ha) | Corn plant response rating (corn (Zea mays); 31 g ai/ha) | Corn plant response rating (corn (Zea mays); 125 g ai/ha) | Wheat plant response rating ([8]; 31 g ai/ha) | Wheat plant response rating ([8]; 125 g ai/ha) | Barnyardgrass plant response rating ([11]; 31 g ai/ha) | Barnyardgrass plant response rating ([11]; 125 g ai/ha) | Blackgrass plant response rating ([12]; 31 g ai/ha) | Blackgrass plant response rating ([12]; 125 g ai/ha) | Kochia plant response rating (kochia (Kochia scoparia) [14]; 31 g ai/ha) | Ragweed plant response rating ([15]; 31 g ai/ha) | Ragweed plant response rating ([15]; 125 g ai/ha) | Ducksalad plant response rating (0 to 100 scale, 0 is no effect, 100 is complete control) [17] | Barnyardgrass plant response rating (0 to 100 scale, 0 is no effect, 100 is complete control) [18] | Rice plant response rating (0 to 100 scale, 0 is no effect, 100 is complete control) (rice (Oryza sativa))
70: Galium plant response rating ([10]; 125 g ai/ha) | Sedge, Umbrella plant response rating (0 to 100 scale, 0 is no effect, 100 is complete control) [16]
20: Plant response rating (0 to 100 scale), Pigweed ([2]; 125 g ai/ha) | Ryegrass, It. plant response rating ([13]; 31 g ai/ha)
40: Pigweed plant response rating ([9]; 125 g ai/ha)
